Laboratory results from article PMC9234961 (Journal of Medicinal Chemistry, 2022).
Where two headings read alike, the source gives them in different places.

How the values were obtained:
kinases (468) [1] = biological target: kinases (468) (Homo sapiens, UniProt P00533, L858R/T790M); conditions: EGFR(L858R,T790M); 1000 nM
kinases (468) [2] = biological target: kinases (468) (Homo sapiens, UniProt Q09013); conditions: DMPK; 1000 nM
kinases (468) [3] = biological target: kinases (468) (Homo sapiens, UniProt P42684); conditions: ABL2; 1000 nM
kinases (468) [4] = biological target: kinases (468) (Homo sapiens, UniProt P53350); conditions: PLK1; 1000 nM
kinases (468) [5] = biological target: kinases (468) (Homo sapiens, UniProt Q9UPE1); conditions: kinase SRPK3 (Entrez SRPK3); compound concentration 1000 nM
Chain of kinases (468) (Homo sapiens, UniProt Q9UPE1) (Q9UPE1 whole entry): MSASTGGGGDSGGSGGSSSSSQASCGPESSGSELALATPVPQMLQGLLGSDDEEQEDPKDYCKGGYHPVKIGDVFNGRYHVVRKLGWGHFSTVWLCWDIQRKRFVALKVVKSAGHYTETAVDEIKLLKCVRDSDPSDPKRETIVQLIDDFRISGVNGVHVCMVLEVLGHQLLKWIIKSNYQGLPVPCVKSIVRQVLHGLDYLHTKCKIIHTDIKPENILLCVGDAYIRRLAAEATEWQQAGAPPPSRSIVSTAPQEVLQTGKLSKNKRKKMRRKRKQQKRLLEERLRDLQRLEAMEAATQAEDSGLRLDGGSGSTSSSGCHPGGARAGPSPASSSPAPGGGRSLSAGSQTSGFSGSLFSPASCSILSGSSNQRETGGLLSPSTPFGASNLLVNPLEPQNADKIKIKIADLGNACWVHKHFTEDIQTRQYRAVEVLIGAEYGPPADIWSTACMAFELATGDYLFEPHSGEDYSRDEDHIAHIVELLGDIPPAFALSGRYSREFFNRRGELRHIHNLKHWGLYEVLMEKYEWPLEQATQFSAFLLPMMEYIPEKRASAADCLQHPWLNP

kinases (468) [6] = biological target: kinases (468) (Homo sapiens, UniProt Q06187); conditions: BTK; 1000 nM
kinases (468) [7] = biological target: kinases (468) (Homo sapiens, UniProt Q96NX5); conditions: CAMK1G; 1000 nM
kinases (468) [8] = biological target: kinases (468) (Homo sapiens, UniProt O14976); conditions: GAK; 1000 nM
kinases (468) [9] = biological target: kinases (468) (Homo sapiens, UniProt Q56UN5); conditions: kinase YSK4 (Entrez MAP3K19); compound concentration 1000 nM
kinases (468) [10] = biological target: kinases (468) (Homo sapiens, UniProt Q9H1R3); conditions: MYLK2; 1000 nM
kinases (468) [11] = biological target: kinases (468) (Homo sapiens, UniProt Q9Y4K4); conditions: MAP4K5; 1000 nM
kinases (468) [12] = biological target: kinases (468) (Homo sapiens, UniProt Q8N752); conditions: CSNK1A1L; 1000 nM
kinases (468) [13] = biological target: kinases (468) (Homo sapiens, UniProt Q13873); conditions: BMPR2; 1000 nM
kinases (468) [14] = biological target: kinases (468) (Homo sapiens, UniProt Q13555); conditions: CAMK2G; 1000 nM
kinases (468) [15] = biological target: kinases (468) (Homo sapiens, UniProt Q92772); conditions: CDKL2; 1000 nM
kinases (468) [16] = biological target: kinases (468) (Homo sapiens, UniProt Q8NFD2); conditions: ANKK1; 1000 nM
kinases (468) [17] = biological target: kinases (468) (Homo sapiens, UniProt Q9P1W9); conditions: PIM2; 1000 nM
kinases (468) [18] = biological target: kinases (468) (Homo sapiens, UniProt P51813); conditions: BMX; 1000 nM
kinases (468) [19] = biological target: kinases (468) (Homo sapiens, UniProt Q8WXR4); conditions: MYO3B; 1000 nM
kinases (468) [20] = biological target: kinases (468) (Homo sapiens, UniProt Q16512); conditions: PKN1; 1000 nM
kinases (468) [21] = biological target: kinases (468) (Homo sapiens, UniProt P42338); conditions: PIK3CB; 1000 nM
kinases (468) [22] = biological target: kinases (468) (Homo sapiens, UniProt O43293); conditions: DAPK3; 1000 nM
Chain of kinases (468) (Homo sapiens, UniProt O43293) (O43293 whole entry): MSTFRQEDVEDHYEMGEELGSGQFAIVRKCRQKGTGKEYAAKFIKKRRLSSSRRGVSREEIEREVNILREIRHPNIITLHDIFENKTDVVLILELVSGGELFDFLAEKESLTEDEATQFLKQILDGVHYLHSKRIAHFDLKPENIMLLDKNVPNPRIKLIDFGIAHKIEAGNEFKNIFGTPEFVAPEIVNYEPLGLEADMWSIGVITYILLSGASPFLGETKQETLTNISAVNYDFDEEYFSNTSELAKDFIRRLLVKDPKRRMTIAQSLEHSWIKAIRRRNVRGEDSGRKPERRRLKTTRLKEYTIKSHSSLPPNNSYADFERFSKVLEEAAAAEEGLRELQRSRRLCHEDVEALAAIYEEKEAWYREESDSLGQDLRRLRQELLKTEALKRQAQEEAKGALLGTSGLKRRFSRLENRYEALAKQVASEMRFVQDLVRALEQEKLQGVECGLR

kinases (468) [23] = biological target: kinases (468) (Homo sapiens, UniProt Q13976); conditions: PRKG1; 1000 nM
kinases (468) [24] = biological target: kinases (468) (Homo sapiens, UniProt Q5VT25); conditions: MRCKA (CDC42BPA); 1000 nM
kinases (468) [25] = biological target: kinases (468) (Homo sapiens, UniProt P17948); conditions: FLT1; 1000 nM
kinases (468) [26] = biological target: kinases (468) (Homo sapiens, UniProt P49759); conditions: CLK1; 1000 nM
kinases (468) [27] = biological target: kinases (468) (Homo sapiens, UniProt Q9UQB9); conditions: AURKC; 1000 nM
kinases (468) [28] = biological target: kinases (468) (Homo sapiens, UniProt P45984); conditions: JNK2 (MAPK9); 1000 nM
kinases (468) [29] = biological target: kinases (468) (Homo sapiens, UniProt Q15349); conditions: compound concentration 1000 nM
Chain of kinases (468) (Homo sapiens, UniProt Q15349) (Q15349 whole entry): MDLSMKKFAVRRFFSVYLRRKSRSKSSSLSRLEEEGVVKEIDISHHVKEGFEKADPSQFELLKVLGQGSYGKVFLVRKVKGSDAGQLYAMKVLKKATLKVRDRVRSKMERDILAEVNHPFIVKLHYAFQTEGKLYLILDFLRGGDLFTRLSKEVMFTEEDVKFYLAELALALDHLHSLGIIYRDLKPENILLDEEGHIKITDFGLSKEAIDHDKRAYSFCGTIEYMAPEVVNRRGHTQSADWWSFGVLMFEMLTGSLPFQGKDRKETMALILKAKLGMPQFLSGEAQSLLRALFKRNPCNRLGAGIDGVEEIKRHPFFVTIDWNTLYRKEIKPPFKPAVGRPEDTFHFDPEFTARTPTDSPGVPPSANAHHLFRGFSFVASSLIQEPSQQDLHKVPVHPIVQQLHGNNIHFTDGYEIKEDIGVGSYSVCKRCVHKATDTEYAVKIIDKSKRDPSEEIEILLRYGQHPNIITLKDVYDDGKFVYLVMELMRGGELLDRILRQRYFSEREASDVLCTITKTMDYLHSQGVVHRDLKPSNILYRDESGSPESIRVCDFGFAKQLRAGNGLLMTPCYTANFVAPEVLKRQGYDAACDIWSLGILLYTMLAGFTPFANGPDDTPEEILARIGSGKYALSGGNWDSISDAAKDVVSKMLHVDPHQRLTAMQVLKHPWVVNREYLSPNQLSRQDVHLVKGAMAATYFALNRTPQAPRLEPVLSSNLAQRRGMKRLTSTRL

kinases (468) [30] = biological target: kinases (468) (Homo sapiens, UniProt P42336, E542K); conditions: PIK3CA(E542K); 1000 nM
Chain of kinases (468) (Homo sapiens, UniProt P42336, E542K) (P42336 whole entry E542K): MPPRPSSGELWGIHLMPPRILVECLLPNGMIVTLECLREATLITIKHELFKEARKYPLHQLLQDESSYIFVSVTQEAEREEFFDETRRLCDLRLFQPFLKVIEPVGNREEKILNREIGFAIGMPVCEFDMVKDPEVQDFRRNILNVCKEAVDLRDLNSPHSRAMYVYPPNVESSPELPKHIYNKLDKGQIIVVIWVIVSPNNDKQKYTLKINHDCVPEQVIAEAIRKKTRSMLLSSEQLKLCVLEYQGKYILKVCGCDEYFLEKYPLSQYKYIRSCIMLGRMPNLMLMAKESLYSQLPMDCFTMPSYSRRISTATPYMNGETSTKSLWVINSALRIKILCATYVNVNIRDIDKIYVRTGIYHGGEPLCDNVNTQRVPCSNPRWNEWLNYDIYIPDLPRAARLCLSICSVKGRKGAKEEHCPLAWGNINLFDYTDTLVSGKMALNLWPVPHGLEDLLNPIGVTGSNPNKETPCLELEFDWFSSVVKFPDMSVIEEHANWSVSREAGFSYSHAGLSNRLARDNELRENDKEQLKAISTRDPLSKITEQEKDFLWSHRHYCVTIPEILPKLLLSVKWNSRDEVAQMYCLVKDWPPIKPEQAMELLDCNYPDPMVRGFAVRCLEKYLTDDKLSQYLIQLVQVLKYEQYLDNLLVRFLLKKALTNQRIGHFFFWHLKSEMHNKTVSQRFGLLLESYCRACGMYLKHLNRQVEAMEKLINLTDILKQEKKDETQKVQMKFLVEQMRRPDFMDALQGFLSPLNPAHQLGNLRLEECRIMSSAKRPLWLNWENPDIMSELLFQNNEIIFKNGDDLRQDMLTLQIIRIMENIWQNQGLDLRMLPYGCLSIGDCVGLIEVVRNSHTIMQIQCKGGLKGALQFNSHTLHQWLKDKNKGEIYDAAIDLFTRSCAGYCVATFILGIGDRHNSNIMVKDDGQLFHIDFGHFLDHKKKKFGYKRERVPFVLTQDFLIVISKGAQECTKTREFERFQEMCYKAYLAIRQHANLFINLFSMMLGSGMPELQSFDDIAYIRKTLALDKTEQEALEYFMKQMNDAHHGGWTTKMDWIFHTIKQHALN

kinases (468) [31] = biological target: kinases (468) (Homo sapiens, UniProt Q9NWZ3); conditions: IRAK4; 1000 nM
kinases (468) [32] = biological target: kinases (468) (Homo sapiens, UniProt P48736); conditions: PIK3CG; 1000 nM
kinases (468) [33] = biological target: kinases (468) (Homo sapiens, UniProt Q16659); conditions: ERK3 (MAPK6); 1000 nM
kinases (468) [34] = biological target: kinases (468) (Homo sapiens, UniProt Q8N5S9); conditions: CAMKK1; 1000 nM
kinases (468) [35] = biological target: kinases (468) (Homo sapiens, UniProt P0C264); conditions: kinase SgK110 (Entrez SgK110); compound concentration 1000 nM
Chain of kinases (468) (Homo sapiens, UniProt P0C264) (P0C264 whole entry): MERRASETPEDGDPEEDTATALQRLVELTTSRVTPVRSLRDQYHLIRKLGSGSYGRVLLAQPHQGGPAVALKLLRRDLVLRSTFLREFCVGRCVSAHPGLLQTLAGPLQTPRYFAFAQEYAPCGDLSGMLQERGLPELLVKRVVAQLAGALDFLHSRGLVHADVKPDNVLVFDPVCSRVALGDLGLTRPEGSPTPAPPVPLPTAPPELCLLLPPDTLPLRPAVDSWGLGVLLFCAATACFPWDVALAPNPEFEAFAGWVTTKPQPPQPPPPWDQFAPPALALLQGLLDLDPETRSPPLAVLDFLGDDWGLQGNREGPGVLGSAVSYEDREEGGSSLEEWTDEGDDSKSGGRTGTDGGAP

Chain of kinases (468) (Homo sapiens, UniProt Q09013) (Q09013 whole entry): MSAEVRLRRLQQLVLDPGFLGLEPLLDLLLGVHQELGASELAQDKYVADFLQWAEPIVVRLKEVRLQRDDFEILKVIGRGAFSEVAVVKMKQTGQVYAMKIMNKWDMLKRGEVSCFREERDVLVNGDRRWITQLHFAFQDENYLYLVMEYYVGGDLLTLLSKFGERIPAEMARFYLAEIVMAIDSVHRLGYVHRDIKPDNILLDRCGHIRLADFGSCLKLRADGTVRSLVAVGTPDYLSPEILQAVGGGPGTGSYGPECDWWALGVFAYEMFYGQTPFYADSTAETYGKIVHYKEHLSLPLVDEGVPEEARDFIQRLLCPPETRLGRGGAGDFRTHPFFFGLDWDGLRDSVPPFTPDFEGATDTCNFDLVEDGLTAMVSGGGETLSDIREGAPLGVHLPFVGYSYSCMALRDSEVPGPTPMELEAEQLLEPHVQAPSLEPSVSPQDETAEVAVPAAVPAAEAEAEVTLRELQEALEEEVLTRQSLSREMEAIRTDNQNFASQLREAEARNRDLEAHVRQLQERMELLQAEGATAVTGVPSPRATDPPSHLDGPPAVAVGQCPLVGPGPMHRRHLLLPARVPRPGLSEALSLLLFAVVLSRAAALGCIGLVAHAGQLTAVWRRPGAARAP
Chain of kinases (468) (Homo sapiens, UniProt P00533, L858R/T790M) (P00533 25-1210 T790M/L858R, looked up): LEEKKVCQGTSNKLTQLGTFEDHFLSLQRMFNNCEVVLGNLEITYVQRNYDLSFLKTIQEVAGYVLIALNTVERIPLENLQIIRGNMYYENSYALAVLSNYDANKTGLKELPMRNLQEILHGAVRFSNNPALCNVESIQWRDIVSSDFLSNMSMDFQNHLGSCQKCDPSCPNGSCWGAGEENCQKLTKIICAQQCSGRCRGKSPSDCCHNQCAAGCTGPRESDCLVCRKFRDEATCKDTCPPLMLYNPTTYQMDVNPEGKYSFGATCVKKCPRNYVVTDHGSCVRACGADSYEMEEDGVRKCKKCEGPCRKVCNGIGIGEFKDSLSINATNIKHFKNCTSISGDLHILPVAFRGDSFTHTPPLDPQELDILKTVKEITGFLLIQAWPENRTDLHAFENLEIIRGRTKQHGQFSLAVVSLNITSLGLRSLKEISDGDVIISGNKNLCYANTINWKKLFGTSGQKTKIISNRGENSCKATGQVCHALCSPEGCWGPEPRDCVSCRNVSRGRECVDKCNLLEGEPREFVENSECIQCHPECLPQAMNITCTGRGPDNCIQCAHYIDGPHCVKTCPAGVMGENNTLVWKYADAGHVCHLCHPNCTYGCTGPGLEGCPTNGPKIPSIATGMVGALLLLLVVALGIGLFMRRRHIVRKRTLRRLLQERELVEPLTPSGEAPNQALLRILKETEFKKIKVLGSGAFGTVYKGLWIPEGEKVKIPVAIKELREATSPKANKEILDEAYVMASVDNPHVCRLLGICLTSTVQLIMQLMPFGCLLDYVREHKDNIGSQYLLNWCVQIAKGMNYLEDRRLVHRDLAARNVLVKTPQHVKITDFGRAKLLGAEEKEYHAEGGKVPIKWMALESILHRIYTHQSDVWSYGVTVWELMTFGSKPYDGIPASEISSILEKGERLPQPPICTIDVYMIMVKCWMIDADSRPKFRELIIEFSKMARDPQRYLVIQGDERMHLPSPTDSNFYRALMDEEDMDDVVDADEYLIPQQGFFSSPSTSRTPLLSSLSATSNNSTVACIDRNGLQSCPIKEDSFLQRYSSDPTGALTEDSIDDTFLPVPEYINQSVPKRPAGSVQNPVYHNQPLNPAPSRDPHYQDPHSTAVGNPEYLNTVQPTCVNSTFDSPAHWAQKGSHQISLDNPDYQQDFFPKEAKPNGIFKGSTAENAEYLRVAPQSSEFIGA

Structure (SMILES): C[C@H]1C[C@@H](O)CN(c2ncc(Cl)c(Nc3ccc4c(c3)c3c(c(=O)n4C)OCC(F)(F)[C@H](C4CC4)N3)n2)C1 [CCT373566_9A]
- Percent Control (kinases (468) [1]): 81%
- Percent Control (kinases (468) [2]): 98%
- Percent Control (kinases (468) [3]): 100%
- Percent Control (kinases (468) [4]): 83%
- Percent Control (kinases (468) [5]): 90%
- Percent Control (kinases (468) [6]): 100%
- Percent Control (kinases (468) [7]): 96%
- Percent Control (kinases (468) [8]): 86%
- Percent Control (kinases (468) [9]): 100%
- Percent Control (kinases (468) [10]): 100%
- Percent Control (kinases (468) [11]): 85%
- Percent Control (kinases (468) [12]): 96%
- Percent Control (kinases (468) [13]): 100%
- Percent Control (kinases (468) [14]): 96%
- Percent Control (kinases (468) [15]): 100%
- Percent Control (kinases (468) [16]): 95%
- Percent Control (kinases (468) [17]): 98%
- Percent Control (kinases (468) [18]): 100%
- Percent Control (kinases (468) [19]): 100%
- Percent Control (kinases (468) [20]): 100%
- Percent Control (kinases (468) [21]): 85%
- Percent Control (kinases (468) [22]): 100%
- Percent Control (kinases (468) [23]): 96%
- Percent Control (kinases (468) [24]): 99%
- Percent Control (kinases (468) [25]): 100%
- Percent Control (kinases (468) [26]): 94%
- Percent Control (kinases (468) [27]): 100%
- Percent Control (kinases (468) [28]): 78%
- Percent Control (kinases (468) [29]; kinase RSK3(Kin.Dom.1-N-terminal) (Entrez RPS6KA2)): 100%
- Percent Control (kinases (468) [29]; kinase RSK3(Kin.Dom.2-C-terminal) (Entrez RPS6KA2)): 83%
- Percent Control (kinases (468) [30]): 83%
- Percent Control (kinases (468) [31]): 80%
- Percent Control (kinases (468) [32]): 98%
- Percent Control (kinases (468) [33]): 100%
- Percent Control (kinases (468) [34]): 99%
- Percent Control (kinases (468) [35]): 95%
